Data reported in US20040185460A1, “Novel mixed lineage kinase (7) (mlk7) polypeptide polynucleotides encoding the same and methods of use thereof” (priority 2001, published 2004).

System: baculoviral human GST-MLK7KD and GST-MLK7KD/LZ
Details: data not shown; shows requirement for metal ions (Mg+2)

## O=C(O)CN(CCN(CC(=O)O)CC(=O)O)CC(=O)O [EDTA]
  activities of GST-MLK7KD and GST-MLK7KD/LZ: inhibited
